The source made the active and inactive calls. No cut-off for these calls is given here.
Experiments:
[1] = system: Replicase polyprotein 1ab (Severe acute respiratory syndrome coronavirus 2), P0DTD1 [UNDEFINED MUTATION]; experiment: Activation of recombinant SARS-COV2 main protease V297TMSK mutant expressed in Escherichia coli BL21 (DE3) using DABCYL-KTSAVLQSGFRKME-EDANS-NH2 as fluorogenic substrate at 1.5 to 50 uM preincubated for 10 mins followed by substrate addition by FRET assay; settings: filed as activator, dose 1.5-50 µM
[2] = system: Replicase polyprotein 1ab (Severe acute respiratory syndrome coronavirus 2), P0DTD1 [UNDEFINED MUTATION]; experiment: Activation of recombinant SARS-COV2 main protease V297TFAK mutant expressed in Escherichia coli BL21 (DE3) using DABCYL-KTSAVLQSGFRKME-EDANS-NH2 as fluorogenic substrate at 1.5 to 50 uM preincubated for 10 mins followed by substrate addition by FRET assay; settings: filed as activator, dose 1.5-50 µM
[3] = system: Replicase polyprotein 1ab (Severe acute respiratory syndrome coronavirus 2), P0DTD1 [UNDEFINED MUTATION]; experiment: Activation of recombinant SARS-COV2 main protease I213TMSK mutant expressed in Escherichia coli BL21 (DE3) using DABCYL-KTSAVLQSGFRKME-EDANS-NH2 as fluorogenic substrate at 15 uM preincubated for 10 mins followed by substrate addition by FRET assay; settings: filed as activator
[4] = system: Replicase polyprotein 1ab (Severe acute respiratory syndrome coronavirus 2), P0DTD1 [UNDEFINED MUTATION]; experiment: Activation of recombinant SARS-COV2 main protease I213TFAK mutant expressed in Escherichia coli BL21 (DE3) using DABCYL-KTSAVLQSGFRKME-EDANS-NH2 as fluorogenic substrate at 15 uM preincubated for 10 mins followed by substrate addition by FRET assay; settings: filed as activator
[5] = system: Replicase polyprotein 1ab (Severe acute respiratory syndrome coronavirus 2), P0DTD1 [S46A]; experiment: Inhibition of recombinant SARS-COV2 main protease S46A mutant expressed in Escherichia coli BL21 (DE3) using DABCYL-KTSAVLQSGFRKME-EDANS-NH2 as fluorogenic substrate at 16 to 100 nM preincubated for 10 mins followed by substrate addition by FRET assay; settings: dose 16-100 nM
[6] = system: Replicase polyprotein 1ab (Severe acute respiratory syndrome coronavirus 2), P0DTD1 [L50A]; experiment: Inhibition of recombinant SARS-COV2 main protease L50A mutant expressed in Escherichia coli BL21 (DE3) using DABCYL-KTSAVLQSGFRKME-EDANS-NH2 as fluorogenic substrate at 16 to 100 nM preincubated for 10 mins followed by substrate addition by FRET assay; settings: dose 16-100 nM
[7] = system: Replicase polyprotein 1ab (Severe acute respiratory syndrome coronavirus 2), P0DTD1 [N72A]; experiment: Inhibition of recombinant SARS-COV2 main protease N72A mutant expressed in Escherichia coli BL21 (DE3) using DABCYL-KTSAVLQSGFRKME-EDANS-NH2 as fluorogenic substrate at 16 to 100 nM preincubated for 10 mins followed by substrate addition by FRET assay; settings: dose 16-100 nM
[8] = system: Replicase polyprotein 1ab (Severe acute respiratory syndrome coronavirus 2), P0DTD1 [N142A]; experiment: Inhibition of recombinant SARS-COV2 main protease N142A mutant expressed in Escherichia coli BL21 (DE3) using DABCYL-KTSAVLQSGFRKME-EDANS-NH2 as fluorogenic substrate at 16 to 100 nM preincubated for 10 mins followed by substrate addition by FRET assay; settings: dose 16-100 nM
[9] = system: Replicase polyprotein 1ab (Severe acute respiratory syndrome coronavirus 2), P0DTD1 [V186A]; experiment: Inhibition of recombinant SARS-COV2 main protease V186A mutant expressed in Escherichia coli BL21 (DE3) using DABCYL-KTSAVLQSGFRKME-EDANS-NH2 as fluorogenic substrate at 16 to 100 nM preincubated for 10 mins followed by substrate addition by FRET assay; settings: dose 16-100 nM
[10] = system: Replicase polyprotein 1ab (Severe acute respiratory syndrome coronavirus 2), P0DTD1 [UNDEFINED MUTATION]; experiment: Inhibition of recombinant SARS-COV2 main protease S46TMSK mutant expressed in Escherichia coli BL21 (DE3) using DABCYL-KTSAVLQSGFRKME-EDANS-NH2 as fluorogenic substrate at 16 to 1000 nM preincubated for 10 mins followed by substrate addition by FRET assay; settings: dose 16-1000 nM
[11] = system: Replicase polyprotein 1ab (Severe acute respiratory syndrome coronavirus 2), P0DTD1 [UNDEFINED MUTATION]; experiment: Inhibition of recombinant SARS-COV2 main protease L50TMSK mutant expressed in Escherichia coli BL21 (DE3) using DABCYL-KTSAVLQSGFRKME-EDANS-NH2 as fluorogenic substrate at 16 to 1000 nM preincubated for 10 mins followed by substrate addition by FRET assay; settings: dose 16-1000 nM
[12] = system: Replicase polyprotein 1ab (Severe acute respiratory syndrome coronavirus 2), P0DTD1 [UNDEFINED MUTATION]; experiment: Inhibition of recombinant SARS-COV2 main protease N72TMSK mutant expressed in Escherichia coli BL21 (DE3) using DABCYL-KTSAVLQSGFRKME-EDANS-NH2 as fluorogenic substrate at 16 to 1000 nM preincubated for 10 mins followed by substrate addition by FRET assay; settings: dose 16-1000 nM
[13] = system: Replicase polyprotein 1ab (Severe acute respiratory syndrome coronavirus 2), P0DTD1 [UNDEFINED MUTATION]; experiment: Inhibition of recombinant SARS-COV2 main protease N142TMSK mutant expressed in Escherichia coli BL21 (DE3) using DABCYL-KTSAVLQSGFRKME-EDANS-NH2 as fluorogenic substrate at 16 to 1000 nM preincubated for 10 mins followed by substrate addition by FRET assay; settings: dose 16-1000 nM
[14] = system: Replicase polyprotein 1ab (Severe acute respiratory syndrome coronavirus 2), P0DTD1 [UNDEFINED MUTATION]; experiment: Inhibition of recombinant SARS-COV2 main protease V186TMSK mutant expressed in Escherichia coli BL21 (DE3) using DABCYL-KTSAVLQSGFRKME-EDANS-NH2 as fluorogenic substrate at 16 to 1000 nM preincubated for 10 mins followed by substrate addition by FRET assay; settings: dose 16-1000 nM
[15] = system: Replicase polyprotein 1ab (Severe acute respiratory syndrome coronavirus 2), P0DTD1 [UNDEFINED MUTATION]; experiment: Inhibition of recombinant SARS-COV2 main protease A255TMSK mutant expressed in Escherichia coli BL21 (DE3) using DABCYL-KTSAVLQSGFRKME-EDANS-NH2 as fluorogenic substrate at 16 to 1000 nM preincubated for 10 mins followed by substrate addition by FRET assay; settings: dose 16-1000 nM
[16] = system: Replicase polyprotein 1ab (Severe acute respiratory syndrome coronavirus 2), P0DTD1 [N142L]; experiment: Inhibition of SARS-COV2 main protease N142L mutant assessed as fold increase in IC50
[17] = system: Replicase polyprotein 1ab (Severe acute respiratory syndrome coronavirus 2), P0DTD1 [UNDEFINED MUTATION]; experiment: Inhibition of recombinant SARS-COV2 main protease S46TMSK mutant expressed in Escherichia coli BL21 (DE3) using DABCYL-KTSAVLQSGFRKME-EDANS-NH2 as fluorogenic substrate at 5 to 50 uM preincubated for 10 mins followed by substrate addition by FRET assay; settings: dose 5-50 µM
[18] = system: Replicase polyprotein 1ab (Severe acute respiratory syndrome coronavirus 2), P0DTD1 [UNDEFINED MUTATION]; experiment: Inhibition of recombinant SARS-COV2 main protease L50TMSK mutant expressed in Escherichia coli BL21 (DE3) using DABCYL-KTSAVLQSGFRKME-EDANS-NH2 as fluorogenic substrate at 5 to 50 uM preincubated for 10 mins followed by substrate addition by FRET assay; settings: dose 5-50 µM
[19] = system: Replicase polyprotein 1ab (Severe acute respiratory syndrome coronavirus 2), P0DTD1 [UNDEFINED MUTATION]; experiment: Inhibition of recombinant SARS-COV2 main protease N72TMSK mutant expressed in Escherichia coli BL21 (DE3) using DABCYL-KTSAVLQSGFRKME-EDANS-NH2 as fluorogenic substrate at 5 to 50 uM preincubated for 10 mins followed by substrate addition by FRET assay; settings: dose 5-50 µM
[20] = system: Replicase polyprotein 1ab (Severe acute respiratory syndrome coronavirus 2), P0DTD1 [UNDEFINED MUTATION]; experiment: Inhibition of recombinant SARS-COV2 main protease N142TMSK mutant expressed in Escherichia coli BL21 (DE3) using DABCYL-KTSAVLQSGFRKME-EDANS-NH2 as fluorogenic substrate at 5 to 50 uM preincubated for 10 mins followed by substrate addition by FRET assay; settings: dose 5-50 µM
[21] = system: Replicase polyprotein 1ab (Severe acute respiratory syndrome coronavirus 2), P0DTD1 [UNDEFINED MUTATION]; experiment: Inhibition of recombinant SARS-COV2 main protease V186TMSK mutant expressed in Escherichia coli BL21 (DE3) using DABCYL-KTSAVLQSGFRKME-EDANS-NH2 as fluorogenic substrate at 5 to 50 uM preincubated for 10 mins followed by substrate addition by FRET assay; settings: dose 5-50 µM
[22] = system: Replicase polyprotein 1ab (Severe acute respiratory syndrome coronavirus 2), P0DTD1 [UNDEFINED MUTATION]; experiment: Inhibition of recombinant SARS-COV2 main protease A191TMSK mutant expressed in Escherichia coli BL21 (DE3) using DABCYL-KTSAVLQSGFRKME-EDANS-NH2 as fluorogenic substrate at 5 to 50 uM preincubated for 10 mins followed by substrate addition by FRET assay; settings: dose 5-50 µM
[23] = system: Replicase polyprotein 1ab (Severe acute respiratory syndrome coronavirus 2), P0DTD1 [UNDEFINED MUTATION]; experiment: Inhibition of recombinant SARS-COV2 main protease L232TMSK mutant expressed in Escherichia coli BL21 (DE3) using DABCYL-KTSAVLQSGFRKME-EDANS-NH2 as fluorogenic substrate at 5 to 50 uM preincubated for 10 mins followed by substrate addition by FRET assay; settings: dose 5-50 µM
[24] = system: Replicase polyprotein 1ab (Severe acute respiratory syndrome coronavirus 2), P0DTD1 [UNDEFINED MUTATION]; experiment: Inhibition of recombinant SARS-COV2 main protease A255TMSK mutant expressed in Escherichia coli BL21 (DE3) using DABCYL-KTSAVLQSGFRKME-EDANS-NH2 as fluorogenic substrate at 5 to 50 uM preincubated for 10 mins followed by substrate addition by FRET assay; settings: dose 5-50 µM

With `CCOc1cc2ncc(C#N)c(Nc3ccc(F)c(Cl)c3)c2cc1NC(=O)/C=C/CN(C)C` [PELITINIB] the Activity [1] was “Dose-Dependent Effect”, the Activity [2] was “Dose-Dependent Effect” and the Activity [3] was “Active”. For the same compound, the Activity [4] was “Active”.

`CC(=O)[C@@H]1CSCC(=O)N[C@H](Cc2ccc(O)cc2)C(=O)N[C@@H](CC(C)C)C(=O)N[C@@H](CCC(N)=O)C(=O)N[C@@H](Cc2ccc(O)cc2)C(=O)N[C@@H](C)C(=O)N[C@@H](C(C)C)C(=O)N[C@@H](CC(C)C)C(=O)N[C@@H](CCCNC(=N)N)C(=O)N[C@@H](Cc2c[nH]cn2)C(=O)N[C@@H](CCCCN)C(=O)N[C@@H](CCCNC(=N)N)C(=O)N[C@@H](CCCNC(=N)N)C(=O)N[C@@H](CCC(=O)O)C(=O)C1` was tested, and the inhibition [5] was “Dose-Dependent Effect”, the inhibition [6] was “Dose-Dependent Effect” and the inhibition [7] was “Dose-Dependent Effect”. For the same compound, the inhibition [8] was “Dose-Dependent Effect”, the inhibition [9] was “Dose-Dependent Effect” and the inhibition [10] was “Dose-Dependent Effect”. The inhibition [11] was “Dose-Dependent Effect”, the inhibition [12] was “Dose-Dependent Effect” and the inhibition [13] was “Dose-Dependent Effect”. The inhibition [14] was “Dose-Dependent Effect”, the inhibition [15] was “Dose-Dependent Effect” and the fold change (FC) [16] was 5.

In the case of `CCCC[C@@H](C=O)NC(=O)[C@H](CC(C)C)NC(=O)OCc1ccccc1`, the inhibition [17] is reported as “Dose-Dependent Effect”, the inhibition [18] is reported as “Dose-Dependent Effect” and the inhibition [19] is reported as “Dose-Dependent Effect”. For the same compound, the inhibition [20] was “Dose-Dependent Effect”, the inhibition [21] was “Dose-Dependent Effect” and the inhibition [22] was “Dose-Dependent Effect”. The inhibition [23] was “Dose-Dependent Effect” and the inhibition [24] was “Dose-Dependent Effect”.
